PubChem BioAssay AID1918939 (Molecular Pharmacology Branch, DTP, NCI, 2023)

Test system: 653999-131-R-J2-PDC complex spheroid viability
Test: Anticancer human tumor 653999-131-R-J2-PDC patient-derived lung adenocarcinoma cell line growth inhibition
Details: for IC50: curve of first compound; for viability, T/C: stronger effect = lower value
Outline: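 Drug combinations with the LSD1 inhibitor iadademstat tested on tumor cells co-cultured as spheroids with endothelial cells and mesenchymal stem cells. Concentrations descended in half-log increments from clinical Cmax or 10 microM.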

[1] = second compound 0.1 µM, first compound 0.000949 µM
[2] = second compound 0.1 µM, first compound 0.003 µM
[3] = second compound 0.1 µM, first compound 0.00949 µM
[4] = second compound 0.1 µM, first compound 0.03 µM
[5] = second compound 0.1 µM, first compound 0.0949 µM
[6] = second compound 0.1 µM, first compound 0.3 µM
[7] = second compound 0.316 µM, first compound 0.000949 µM
[8] = second compound 0.316 µM, first compound 0.003 µM
[9] = second compound 0.316 µM, first compound 0.00949 µM
[10] = second compound 0.316 µM, first compound 0.03 µM
[11] = second compound 0.316 µM, first compound 0.0949 µM
[12] = second compound 0.316 µM, first compound 0.3 µM
[13] = second compound 1 µM, first compound 0.000949 µM
[14] = second compound 1 µM, first compound 0.003 µM
[15] = second compound 1 µM, first compound 0.00949 µM
[16] = second compound 1 µM, first compound 0.03 µM
[17] = second compound 1 µM, first compound 0.0949 µM
[18] = second compound 1 µM, first compound 0.3 µM
[19] = second compound 3.16 µM, first compound 0.000949 µM
[20] = second compound 3.16 µM, first compound 0.003 µM
[21] = second compound 3.16 µM, first compound 0.00949 µM
[22] = second compound 3.16 µM, first compound 0.03 µM
[23] = second compound 3.16 µM, first compound 0.0949 µM
[24] = second compound 3.16 µM, first compound 0.3 µM
[25] = second compound 10 µM, first compound 0.000949 µM
[26] = second compound 10 µM, first compound 0.003 µM
[27] = second compound 10 µM, first compound 0.00949 µM
[28] = second compound 10 µM, first compound 0.03 µM
[29] = second compound 10 µM, first compound 0.0949 µM
[30] = second compound 10 µM, first compound 0.3 µM
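Note: spheroids exposed to agents for seven days before readout.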

Row | SMILES | IC50 (second compound 0.1 µM) | IC50 (second compound 0.316 µM) | IC50 (second compound 1 µM) | IC50 (second compound 3.16 µM) | IC50 (second compound 10 µM) | viability, T/C [1] | viability, T/C [2] | viability, T/C [3] | viability, T/C [4] | viability, T/C [5] | viability, T/C [6] | viability, T/C [7] | viability, T/C [8] | viability, T/C [9] | viability, T/C [10] | viability, T/C [11] | viability, T/C [12] | viability, T/C [13] | viability, T/C [14] | viability, T/C [15] | other results
1 | CCc1c2c(nc3ccc(O)cc13)-c1cc3c(c(=O)n1C2)COC(=O)[C@]3(O)CC + NC1CCC(NC2CC2c2ccccc2)CC1 | < 0.949 nM | < 0.949 nM | < 0.949 nM | < 0.949 nM | < 0.949 nM | 22% | 13.8% | 11.8% | 7.96% | 5.01% | 5% | 19.8% | 15.9% | 9.62% | 7.91% | 3.58% | 6.63% | 21.6% | 15.2% | 9.88% | viability, T/C [16]: 7.86%; viability, T/C [17]: 4.29%; viability, T/C [18]: 4.06%; viability, T/C [19]: 22.2%; viability, T/C [20]: 17.5%; viability, T/C [21]: 12.6%; viability, T/C [22]: 7.56%; viability, T/C [23]: 4.32%; viability, T/C [24]: 3.82%; viability, T/C [25]: 25.5%; viability, T/C [26]: 15.8%; viability, T/C [27]: 9.94%; viability, T/C [28]: 6.03%; viability, T/C [29]: 2.71%; viability, T/C [30]: 2.44%
2 | Nc1ccn(C2OC(CO)C(O)C2(F)F)c(=O)n1 (stereo not given) + NC1CCC(NC2CC2c2ccccc2)CC1 | 8.36 nM | 2.64 nM | 7.34 nM | 6.64 nM | 23 nM | 64.2% | 62.6% | 46.7% | 38.7% | 34.5% | 30.1% | 58.4% | 45.5% | 47.8% | 30.8% | 30.6% | 27.3% | 56% | 55.8% | 48.4% | viability, T/C [16]: 36.6%; viability, T/C [17]: 34.8%; viability, T/C [18]: 31.3%; viability, T/C [19]: 70.5%; viability, T/C [20]: 52.2%; viability, T/C [21]: 47.5%; viability, T/C [22]: 45%; viability, T/C [23]: 34.8%; viability, T/C [24]: 33.1%; viability, T/C [25]: 65.2%; viability, T/C [26]: 64.7%; viability, T/C [27]: 59%; viability, T/C [28]: 47.8%; viability, T/C [29]: 40.4%; viability, T/C [30]: 43.8%
